Results reported in article PMC7413254 (Nature Communications, 2020).
Read-outs that look alike come from different tables or passages of the source.

Assays:
non-expressing oocytes [1] = format: cell-based, Xenopus laevis; conditions: non-expressing oocytes, total [3H]CQ transport, normalised to the oocyte type control
Outline: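 Oocytes (ten per treatment, ≥4 independent frogs/days) were preloaded by injecting VF-6 in 25 nL ND96 at pH 5.0, 5.5, 6.0 or 7.0, or Na^+-free choline buffer, then uptake run 1.5 h, 27.5 °C, ND96 pH 5.5 by default. Internal concentrations assumed ~400 nL oocyte volume.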

PfCRT^Ecu1110 [2] = target: T1, PfCRT^Ecu1110 (Plasmodium falciparum, UniProt Q9N623, A220S/I356L/K76T/N326D); experiment: [3H]CQ uptake into Xenopus oocytes, cis-inhibition by unlabelled solute; format: cell-based; conditions: for Uptake of [3H]CQ (% PfCRTEcu1110 control), cis-inhibition / PfCRT-mediated [3H]CQ transport, cis-inhibition (% PfCRTEcu1110 control): PfCRTEcu1110 oocytes; for Uptake of [3H]CQ (% PfCRTEcu1110 control), cis-inhibition: total [3H]CQ transport, normalised to the oocyte type control; for PfCRT-mediated [3H]CQ transport, cis-inhibition (% PfCRTEcu1110 control): background [3H]CQ accumulation subtracted, normalised to oocyte type control; for [3H]CQ transport (% PfCRTEcu1110 control), cis-inhibition, PfCRTEcu1110: PfCRT-mediated component (background subtracted), sheet title says normalised to PfCRTDd2 control, mean ± SEM, SEM
Outline: (§1)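 Washed oocytes (ten per treatment) were exposed to label in pH 5.5 ND96 for 1.5 h at 27.5 °C. Buffer was then removed, cells rinsed in ice-cold ND96, lysed in SDS and counted.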

PfCRT^Dd2 [3] = target: T2, PfCRT^Dd2 (Plasmodium falciparum, UniProt Q9N623, A220S/I356T/K76T/M74I/N326S/N75E/Q271E/R371I); experiment: as above; format: cell-based; conditions: PfCRTDd2 oocytes, background [3H]CQ accumulation subtracted, normalised to oocyte type control
Outline: as §1

PfCRT^3D7 [4] = target: T3, PfCRT^3D7 (Plasmodium falciparum, UniProt Q8IBZ9); experiment: cell-based; format: cell-based; conditions: PfCRT3D7 oocytes, total [3H]CQ transport, normalised to the oocyte type control
Outline: as §1

non-expressing oocytes [5] = experiment: cells; format: cell-based, Xenopus laevis; conditions: non-expressing oocytes, total [3H]CQ transport, normalised to the oocyte type control
Outline: as §1

PfCRT^3D7 [6] = target: T3, PfCRT^3D7; experiment: cell-based; format: cell-based; conditions: PfCRT3D7 oocytes; for Uptake of [3H]CQ (% PfCRT3D7 control), trans-stimulation: total [3H]CQ transport, normalised to the oocyte type control; for PfCRT-mediated [3H]CQ transport, trans-stimulation (% PfCRT3D7 control): normalised to oocyte type control
Outline: (§2)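 Transport measured in Xenopus oocytes expressing the transporters, 1.5 h at 27.5 °C in ND96 pH 5.5 unless noted. For trans-stimulation, VF-6 injected in 25 nL ND96 at pH 5.0–7.0 or Na^+-free (choline) buffer; intracellular levels based on ~400 nL oocyte volume. Ten oocytes per treatment, ≥4 experiments.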

PfNT1 = target: T4, PfNT1 (Plasmodium falciparum, UniProt Q8IDM6); experiment: cell-based; format: cell-based; conditions: PfNT1 oocytes, total [3H]CQ transport, normalised to the oocyte type control
T4 construct: expressed in transfected cells; host or cells: Xenopus laevis oocytes (stage V-VI), cRNA-injected
Outline: as §2

PfCRT^Ecu1110 [7] = target: T1, PfCRT^Ecu1110; experiment: cell-based; format: cell-based; conditions: for Uptake of [3H]CQ (% PfCRTEcu1110 control), trans-stimulation / PfCRT-mediated [3H]CQ transport, trans-stimulation (% PfCRTEcu1110 control): PfCRTEcu1110 oocytes; for Uptake of [3H]CQ (% PfCRTEcu1110 control), trans-stimulation: total [3H]CQ transport, normalised to the oocyte type control; for PfCRT-mediated [3H]CQ transport, trans-stimulation (% PfCRTEcu1110 control): normalised to oocyte type control; for [3H]CQ transport (% PfCRTDd2 control), trans-stimulation, PfCRTEcu1110: PfCRT-mediated component (background subtracted), sheet title says normalised to PfCRTDd2 control, mean ± SEM, SEM
Outline: as §2

PfCRT^Dd2 [8] = target: T2, PfCRT^Dd2; experiment: cell-based; format: cell-based; conditions: for Uptake of [3H]CQ (% PfCRTDd2 control), trans-stimulation / PfCRT-mediated [3H]CQ transport, trans-stimulation (% PfCRTDd2 control): PfCRTDd2 oocytes; for Uptake of [3H]CQ (% PfCRTDd2 control), trans-stimulation: total [3H]CQ transport, normalised to the oocyte type control; for PfCRT-mediated [3H]CQ transport, trans-stimulation (% PfCRTDd2 control): normalised to oocyte type control; for [3H]CQ transport (% PfCRTDd2 control), trans-stimulation, PfCRTDd2: PfCRT-mediated component (background subtracted), mean ± SEM, SEM
Outline: as §2

[9] = [test solute]i = 45 mM (30 mM for some solutes due to solubility)
[10] = [test solute]i = 5 mM (intracellular)
[11] = [test solute]i = 45 mM (intracellular; 30 mM for some solutes due to solubility)
[12] = [test solute]i = 5 mM (injected)

T3 sequence (Q8IBZ9 59-398): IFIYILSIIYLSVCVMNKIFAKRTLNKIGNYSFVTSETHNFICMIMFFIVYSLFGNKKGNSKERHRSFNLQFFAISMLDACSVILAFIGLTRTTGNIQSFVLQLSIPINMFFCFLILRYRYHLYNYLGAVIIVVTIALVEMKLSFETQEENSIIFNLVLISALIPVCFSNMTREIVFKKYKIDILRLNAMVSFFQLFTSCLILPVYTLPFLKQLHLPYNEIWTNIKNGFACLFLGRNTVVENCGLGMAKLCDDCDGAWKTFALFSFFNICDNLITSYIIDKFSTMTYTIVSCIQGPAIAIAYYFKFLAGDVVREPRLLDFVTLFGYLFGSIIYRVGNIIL
T2 sequence (Q9N623 whole entry A220S/I356T/K76T/M74I/N326S/N75E/Q271E/R371I): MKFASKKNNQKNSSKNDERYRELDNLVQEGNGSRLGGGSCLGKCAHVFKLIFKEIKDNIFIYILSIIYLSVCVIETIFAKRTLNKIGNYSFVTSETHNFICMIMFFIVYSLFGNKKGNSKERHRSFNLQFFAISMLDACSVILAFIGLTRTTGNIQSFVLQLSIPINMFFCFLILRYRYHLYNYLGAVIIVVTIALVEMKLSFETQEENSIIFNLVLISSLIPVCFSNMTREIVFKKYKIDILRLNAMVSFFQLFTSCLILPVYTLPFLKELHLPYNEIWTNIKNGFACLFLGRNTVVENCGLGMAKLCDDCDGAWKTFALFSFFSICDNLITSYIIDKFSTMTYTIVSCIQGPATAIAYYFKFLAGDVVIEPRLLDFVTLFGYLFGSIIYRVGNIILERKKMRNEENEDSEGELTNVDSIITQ
T1 sequence (Q9N623 whole entry A220S/I356L/K76T/N326D): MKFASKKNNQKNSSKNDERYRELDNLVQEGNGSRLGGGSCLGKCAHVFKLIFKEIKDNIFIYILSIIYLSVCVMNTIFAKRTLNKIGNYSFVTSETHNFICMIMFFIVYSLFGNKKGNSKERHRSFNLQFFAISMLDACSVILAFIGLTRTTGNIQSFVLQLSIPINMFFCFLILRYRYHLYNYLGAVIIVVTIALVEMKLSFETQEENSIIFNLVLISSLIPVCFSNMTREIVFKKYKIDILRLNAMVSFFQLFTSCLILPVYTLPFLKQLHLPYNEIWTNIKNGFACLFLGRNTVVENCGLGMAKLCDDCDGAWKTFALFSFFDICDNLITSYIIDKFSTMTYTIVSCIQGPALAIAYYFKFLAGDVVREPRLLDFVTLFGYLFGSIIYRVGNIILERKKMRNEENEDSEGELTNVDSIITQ
T4 sequence (Q8IDM6 whole entry): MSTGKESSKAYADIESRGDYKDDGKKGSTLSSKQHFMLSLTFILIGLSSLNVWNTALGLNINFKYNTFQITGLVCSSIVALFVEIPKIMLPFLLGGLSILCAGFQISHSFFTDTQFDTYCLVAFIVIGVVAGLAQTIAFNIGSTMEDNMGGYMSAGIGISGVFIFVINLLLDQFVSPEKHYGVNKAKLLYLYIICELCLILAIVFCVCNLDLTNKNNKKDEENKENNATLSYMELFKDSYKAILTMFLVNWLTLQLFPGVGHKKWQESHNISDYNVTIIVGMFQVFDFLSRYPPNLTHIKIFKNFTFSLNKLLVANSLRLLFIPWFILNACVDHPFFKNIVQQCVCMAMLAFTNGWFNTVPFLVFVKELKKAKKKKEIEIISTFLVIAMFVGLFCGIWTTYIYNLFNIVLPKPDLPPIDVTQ

DPVN [DN-4]
Uptake of [3H]CQ (% non-expressing oocyte control), trans-stimulation (non-expressing oocytes [1]; [test solute]i = 5 mM): 99 ± 4.8 % non-expressing oocyte control | Uptake of [3H]CQ (% non-expressing oocyte control), trans-stimulation (non-expressing oocytes [1]; [9]): 99 ± 1.0 % non-expressing oocyte control | Uptake of [3H]CQ (% PfCRTEcu1110 control), cis-inhibition (PfCRT^Ecu1110 [2]; [test solute] = 0.5 mM): 73 ± 4.4 % PfCRTEcu1110 control | Uptake of [3H]CQ (% PfCRTEcu1110 control), cis-inhibition (PfCRT^Ecu1110 [2]; [test solute] = 1 mM): 66 ± 3.8 % PfCRTEcu1110 control | Uptake of [3H]CQ (% PfCRTEcu1110 control), cis-inhibition (PfCRT^Ecu1110 [2]; [test solute] = 2 mM): 52 ± 3.3 % PfCRTEcu1110 control | PfCRT-mediated [3H]CQ transport, cis-inhibition (% PfCRTEcu1110 control) (PfCRT^Ecu1110 [2]; [test solute] = 1 mM): 61 ± 2.9 % PfCRTEcu1110 control | PfCRT-mediated [3H]CQ transport, cis-inhibition (% PfCRTEcu1110 control) (PfCRT^Ecu1110 [2]; [test solute] = 2 mM): 48 ± 2.4 % PfCRTEcu1110 control | [3H]CQ transport (% PfCRTEcu1110 control), cis-inhibition, PfCRTEcu1110 (PfCRT^Ecu1110 [2]; [test solute] = 0.5 mM): 21 ± 0.6 % PfCRTEcu1110 control | [3H]CQ transport (% PfCRTEcu1110 control), cis-inhibition, PfCRTEcu1110 (PfCRT^Ecu1110 [2]; [test solute] = 1 mM): 19 ± 0.4 % PfCRTEcu1110 control | [3H]CQ transport (% PfCRTEcu1110 control), cis-inhibition, PfCRTEcu1110 (PfCRT^Ecu1110 [2]; [test solute] = 2 mM): 15 ± 0.1 % PfCRTEcu1110 control | PfCRT-mediated [3H]CQ transport, cis-inhibition (% PfCRTDd2 control) (PfCRT^Dd2 [3]; [test solute] = 0.5 mM): 63 ± 3.1 % PfCRTDd2 control | PfCRT-mediated [3H]CQ transport, cis-inhibition (% PfCRTDd2 control) (PfCRT^Dd2 [3]; [test solute] = 1 mM): 47 ± 3.1 % PfCRTDd2 control | PfCRT-mediated [3H]CQ transport, cis-inhibition (% PfCRTDd2 control) (PfCRT^Dd2 [3]; [test solute] = 2 mM): 42 ± 3.2 % PfCRTDd2 control | Uptake of [3H]CQ (% PfCRT3D7 control), cis-inhibition (PfCRT^3D7 [4]; [test solute] = 0.5 mM): 100 ± 2.6 % PfCRT3D7 control | Uptake of [3H]CQ (% PfCRT3D7 control), cis-inhibition (PfCRT^3D7 [4]; [test solute] = 1 mM): 100 ± 3.7 % PfCRT3D7 control | Uptake of [3H]CQ (% PfCRT3D7 control), cis-inhibition (PfCRT^3D7 [4]; [test solute] = 2 mM): 100 ± 4.8 % PfCRT3D7 control | Uptake of [3H]CQ (% non-expressing oocyte control), cis-inhibition (non-expressing oocytes [5]; [test solute] = 0.5 mM): 98 ± 4.6 % non-expressing oocyte control | Uptake of [3H]CQ (% non-expressing oocyte control), cis-inhibition (non-expressing oocytes [5]; [test solute] = 1 mM): 99 ± 4.7 % non-expressing oocyte control | Uptake of [3H]CQ (% non-expressing oocyte control), cis-inhibition (non-expressing oocytes [5]; [test solute] = 2 mM): 99 ± 3.7 % non-expressing oocyte control | Uptake of [3H]CQ (% PfCRT3D7 control), trans-stimulation (PfCRT^3D7 [6]; [test solute]i = 5 mM): 121 ± 3.4 % PfCRT3D7 control | Uptake of [3H]CQ (% PfCRT3D7 control), trans-stimulation (PfCRT^3D7 [6]; [9]): 153 ± 5.0 % PfCRT3D7 control | PfCRT-mediated [3H]CQ transport, trans-stimulation (% PfCRT3D7 control) (PfCRT^3D7 [6]; [10]): 116 ± 2.3 % PfCRT3D7 control | PfCRT-mediated [3H]CQ transport, trans-stimulation (% PfCRT3D7 control) (PfCRT^3D7 [6]; [11]): 147 ± 4.2 % PfCRT3D7 control | Uptake of [3H]CQ (% PfNT1 control), trans-stimulation (PfNT1; [test solute]i = 5 mM): 100 ± 3.2 % PfNT1 control | Uptake of [3H]CQ (% PfNT1 control), trans-stimulation (PfNT1; [9]): 99 ± 3.2 % PfNT1 control | Uptake of [3H]CQ (% PfCRTEcu1110 control), trans-stimulation (PfCRT^Ecu1110 [7]; [test solute]i = 5 mM): 105 ± 3.6 % PfCRTEcu1110 control | Uptake of [3H]CQ (% PfCRTEcu1110 control), trans-stimulation (PfCRT^Ecu1110 [7]; [9]): 100 ± 2.2 % PfCRTEcu1110 control | PfCRT-mediated [3H]CQ transport, trans-stimulation (% PfCRTEcu1110 control) (PfCRT^Ecu1110 [7]; [10]): 102 ± 2.3 % PfCRTEcu1110 control | PfCRT-mediated [3H]CQ transport, trans-stimulation (% PfCRTEcu1110 control) (PfCRT^Ecu1110 [7]; [11]): 98 ± 3.2 % PfCRTEcu1110 control | [3H]CQ transport (% PfCRTDd2 control), trans-stimulation, PfCRTEcu1110 (PfCRT^Ecu1110 [7]; [12]): 31 ± 1.4 % PfCRTEcu1110 control | [3H]CQ transport (% PfCRTDd2 control), trans-stimulation, PfCRTEcu1110 (PfCRT^Ecu1110 [7]; [9]): 30 ± 1.4 % PfCRTEcu1110 control | Uptake of [3H]CQ (% PfCRTDd2 control), trans-stimulation (PfCRT^Dd2 [8]; [test solute]i = 5 mM): 103 ± 1.1 % PfCRTDd2 control | Uptake of [3H]CQ (% PfCRTDd2 control), trans-stimulation (PfCRT^Dd2 [8]; [9]): 100 ± 3.8 % PfCRTDd2 control | PfCRT-mediated [3H]CQ transport, trans-stimulation (% PfCRTDd2 control) (PfCRT^Dd2 [8]; [10]): 99 ± 4.1 % PfCRTDd2 control | PfCRT-mediated [3H]CQ transport, trans-stimulation (% PfCRTDd2 control) (PfCRT^Dd2 [8]; [11]): 98 ± 3.9 % PfCRTDd2 control | [3H]CQ transport (% PfCRTDd2 control), trans-stimulation, PfCRTDd2 (PfCRT^Dd2 [8]; [12]): 99 ± 4.1 % PfCRTDd2 control | [3H]CQ transport (% PfCRTDd2 control), trans-stimulation, PfCRTDd2 (PfCRT^Dd2 [8]; [9]): 98 ± 3.9 % PfCRTDd2 control
